Laboratory results from patent US20250243427A1, “PRECURSORS OF PHENOLIC FRAGRANT COMPOUNDS” (GIVAUDAN SA, priority 2021, published 2025).
“Also recorded” adds a separate entry of the source.

Assays:
[1] = Application in shampoo base, odour on hair swatch; settings: 0.2% by weight in clear hair shampoo base; dried hair swatch 1 and 3 days; panel of 7 experts
Method: A hair shampoo sample (20 g) was prepared by adding 0.2% by weight of 3-ethoxy-4-(hex-3-en-1-yloxy)benzaldehyde (compound of example 3) to unperfumed clear hair shampoo base and mixing on a bottle roller for 24 h at room temperature. An odour-neutral human hair swatch was wetted with warm tap water and lathered delicately with 2 mL of the above hair shampoo sample for 30 sec by hand wearing gloves. The lathered hair swatch was left in a plastic bowl for 2 min, then rinsed under running tap water for 20 sec. After removing excess water by squeezing the hair swatch between two fingers, it was left to dry in open air. The odour of the wet and dried hair swatch (1 and 3 days) was assessed by a panel of 7 experts.

[2] = Odor description on paper blotter; settings: 1% solution in EtOH on paper blotter, 24 h
[3] = Washtest and sensory evaluation of fabric washed with liquid detergent; settings: for odor intensity, 1 day / odor intensity, 4 days / odour intensity, 1 day / odour intensity, 4 days: scale 0 to 5; for odor intensity, wet / odour intensity, wet: wet fabric, scale 0 (odorless) to 5 (extremely strong); for odour intensity, wet: Table 2 (position of double bond); for odour intensity, 1 day / odour intensity, 4 days: Table 2
Method: The wet and line-dried fabric (1 and 4 days) was assessed by a panel of 4-6 experts with regard to odor intensity and quality. The odor intensity was recorded on an intensity scale of 0 (odorless) to 5 (extremely strong).
The odour intensity was recorded on an intensity scale of 0 (odorless) to 5 (extremely strong).
Liquid detergent samples were prepared and used in washtests and subsequent sensory evaluation of the washed and dried fabric as described in Example 45a and c. The odor intensity was recorded on an intensity scale of 0 (odorless) to 5 (extremely strong).

[4] = Malodour reduction on washed fabric, trained sensory panel; settings: 4 day dry cloth washed with unit dose containing 2% of a 10% solution in trietylcitrate, + Male Sweat Malodour, 0-100 line scale; for Perceived Fragrance Intensity: control set at 0; for Perceived Malodour Intensity: malodour control set at 40
Method: Fabrics (18 cm×14 cm cotton jersey) were stripped before use. They were then washed in European washing machines (40° C.—1,000 spin/min) with one unit dose (65 g) used per wash load. The unit dose contained 2% of a 10% solution of the compound of formula 1 in trietylcitrate. • a) Compound of example 33 • b) Compound of example 34 • c) Compound of example 1
The total wash load was 1.6 kg made up of test cloths and hand towels (100% cotton) as ballast. The cloth was line dried and left overnight in a perfume free room at 25° C., left to hang for 3 days and then wrapped in foil the day prior to the test (day 3). 30 minutes before the assessment, 50 μL of the pure Male Sweat malodour was placed on top of a cotton pad and introduced into a 500 ml powder jar. One cotton jersey square was then placed over the top of the powder jar and secured with a rubber band. Every sample tested was coded with a random code number.
The malodour and fragrance perceived intensities were assessed by the trained sensory panel using a 0-100 line scale. All malodour and fragrance perceived intensities were scaled against the malodour control sample. The malodour perceived intensity was set at 40 for Male Sweat malodour and the fragrance perceived intensity was set at 0.
The order of samples assessed by the panelists was pre-determined using a balanced randomisation. The samples were assessed in a sequential monadic way. The products were assessed twice by 14 panelists, thus giving 28 assessments per sample.
Before analysis, the data was checked for outliers and extreme violations to normality.
Reliability of the data was checked and data of panelists with poor discrimination, consensus or repeatability may have been removed from the analysis. The data was analysed using analysis of variance (ANOVA). A 5% significance level (95% confidence level) was used. Separate ANOVAs were carried out for malodour and fragrance intensity. The ANOVA have product, panelist, and replicate as factors. Pairwise comparisons of the products were done using the Benjamini-Hochberg correction for multiple testing. The estimated product means are reported.

[5] = Biodegradability, manometric respirometry test (OECD 301F); design: key to result (biodegradable class; cell wraps to 'biodegradable'): A compound is readily biodegradable, if the pass level is reached within 10 days within the 28-day period of the test; If the pass level is obtained after 28-day period of the test, the compound can be classified as inherently biodegradable; settings: for result (biodegradable class; cell wraps to 'biodegradable'): 28-day test, 10-day window; for Biodegradation in %: pass level 60% oxygen consumption of theory
Source text: The results of the biodegradability assessment by the manometric respirometry test (OECD guideline for the testing of materials No. 301F, Paris 1992) are summarized in Table 5.
A compound can be classified biodegradable, if it reaches the pass level of 60% oxygen consumption of theory required for complete mineralization.
A compound is readily biodegradable, if the pass level is reached within 10 days within the 28-day period of the test. The 10-day window begins when the degree of biodegradation has reached 10%. If the pass level is obtained after 28-day period of the test, the compound can be classified as inherently biodegradable.

[6] = Color stability in liquid detergent, visual inspection; format: physicochemical; settings: 0.2% by weight in unperfumed liquid detergent base, stirred 24 h at room temperature; compared to unperfumed base sample (C)
Source text: The above prepared samples were visually inspected in comparison to an unperfumed base sample (sample C).

[7] = Table 3, liquid detergent washtest
[8] = Table 3, liquid detergent washtest, dry fabric 1 day
[9] = Table 3, liquid detergent washtest, dry fabric 4 days
[10] = liquid detergent washtest, dry fabric 1 day
[11] = liquid detergent washtest, dry fabric 4 days

| SMILES | result (biodegradable class; cell wraps to 'biodegradable') [5] | Biodegradation in % [5] | Odor description [2] | odor on dry fabric [3, 7] | odor intensity, 1 day [3, 8] | odor intensity, 4 days [3, 9] | odor intensity, wet [3, 7] | further results |
| --- | --- | --- | --- | --- | --- | --- | --- | --- |
| CCC=CCCOc1ccc(C=O)cc1OCC [Example 3, 3-ethoxy-4-(hex-3-en-1-yloxy)benzaldehyde] |  |  | powdery sweet (vanilla) |  |  |  |  | odour perceived on dry hair swatch [1]: Five out of seven experts perceived a vanilla note |
| CC/C=C\CCOc1cc(C)c(C(=O)OC)c(O)c1C [Example 9, methyl (Z)-4-(hex-3-en-1-yloxy)-2-hydroxy-3,6-dimethylbenzoate] |  |  | powdery mossy (Evernyl) | oakmoss | 1.7 | 3.3 | 1.0 |  |
| CC/C=C\CCOc1ccc(C=O)cc1OC [Example 8, (Z)-4-(hex-3-en-1-yloxy)-3-methoxybenzaldehyde] | readily | 92% | powdery (vanilla) slightly green |  |  |  |  |  |
| CCOc1cc(C=O)ccc1O [Ethylvanillin (A), 3-ethoxy-4-hydroxybenzaldehyde, reference compound] |  |  |  |  |  |  |  | Color of liquid detergent sample (visual inspection) [6]: strong brown-purple coloration |
| C=CCc1ccc(OCC/C=C\CC)c(OC)c1 [Example 10, (Z)-4-allyl-1-(hex-3-en-1-yloxy)-2-methoxybenzene] |  |  | slightly spicy | spicy, clove,; also recorded: gingerbread | 2.4 | 2.5 | 1.6 |  |
| C/C=C/c1ccc(OCC/C=C\CC)c(OC)c1 [Example 11, 1-(((Z)-hex-3-en-1-yl)oxy)-2-methoxy-4-((E)-prop-1-en-1-yl)benzene] |  |  | slightly spicy woody | spicy, vanilla | 1.9 | 3.0 | 2.0 |  |

Continued, in another order:

| result (biodegradable class; cell wraps to 'biodegradable') [5] | Biodegradation in % [5] | SMILES | Odor description [2] | odor on dry fabric [3, 7] | odor intensity, 1 day [3, 8] | odor intensity, 4 days [3, 9] | odor intensity, wet [3, 7] | further results |
| --- | --- | --- | --- | --- | --- | --- | --- | --- |
| inherently | 66% | CC=CCCOc1ccc(C=O)cc1OCC [Example 33, 3-ethoxy-4-(pent-3-en-1-yloxy)benzaldehyde] | mild, powdery, vanilla, peppery |  |  |  |  | Perceived Fragrance Intensity [4]: 22.3; Perceived Malodour Intensity [4]: 26.5; odour intensity, wet ([3]; liquid detergent washtest): 1.1; odour intensity, 1 day [3, 10]: 3.2; odour intensity, 4 days [3, 11]: 3.8 |
| readily | 91% | CC(=O)CCc1ccc(OCCC=C(C)C)cc1 [Example 18, 4-(4-((4-methylpent-3-en-1-yl)oxy)phenyl)butan-2-one] | sweet fruity (raspberry ketone) |  |  |  |  |  |
| inherently | 69% | CCOc1cc(C=O)ccc1OCCC=C(C)C [Example 34, 3-ethoxy-4-((4-methylpent-3-en-1-yl)oxy)benzaldehyde] | powdery, vanilla, chocolate | vanilla | 3.3 | 3.4 | 1.5 | Perceived Fragrance Intensity [4]: 31.1; Perceived Malodour Intensity [4]: 20.6 |
| readily | 82% | CC/C=C\CCOc1ccc(CCC(C)=O)cc1 [Example 6, (Z)-4-(4-(hex-3-en-1-yloxy)phenyl)butan-2-one] | raspberry | raspberry | 2.8 | 3.6 | 3.0 |  |
| inherently | 61% | CC/C=C\CCOc1ccc(C=O)cc1OCC [Example 1, (Z)-3-ethoxy-4-(hex-3-en-1-yloxy)benzaldehyde] | powdery (vanillin) creamy |  |  |  |  | Perceived Fragrance Intensity [4]: 18.3; Perceived Malodour Intensity [4]: 29.5; odor released from washed T-shirts ([3]; 0.2% in liquid detergent, 40° C. machine wash, after 1 and 4 days): strong vanilla, sweet, powdery and creamy fragrance; odor intensity, 1 day ([3]; Table 1, 0.2% in liquid detergent, 40° C. machine wash, line-dried fabric 1 day): 3; odor intensity, 4 days ([3]; Table 1, 0.2% in liquid detergent, 40° C. machine wash, line-dried fabric 4 days): 3.7; odor intensity, wet ([3]; Table 1, 0.2% in liquid detergent, 40° C. machine wash): 1.3; odour intensity, wet ([3]; liquid detergent washtest): 3.2; odour intensity, 1 day [3, 10]: 3.2; odour intensity, 4 days [3, 11]: 3.6; Color of liquid detergent sample (visual inspection) [6]: optically identical to the unperfumed base |
| inherently | 74% | CCOc1cc(C=O)ccc1OC1CC=CC1 [Example 20, 4-(cyclopent-3-en-1-yloxy)-3-ethoxybenzaldehyde] | vanilla (powdery, spicy, creamy) | vanilla, powdery | 3.0 | 3.7 |  |  |
